Measurements: US20040006103A1, “Use of chloroquine, hydroxychloroquine and 4 amino-quinolinic derivatives to obtain a drug for the anti retroviral therapy, active towards HIV sensitive strains and towards HIV strains which are resistant to both nucleosidic and non-nucleosidic reverse transcriptase inhibitors and to proteases …” (VALPHARMA S.A., priority 2002, published 2004)
Like-named read-outs stand apart in the source and are kept apart here.

Assays:
[1] = test system: HIV clinical isolated, characterised by mutations in the RT gene inducing geno-phenotypic resistance to AZT; assay: p24 production susceptibility test (ACTG protocol), Table 1; assay type: cell-based, HIV-1; details: for EC50: Human immunodeficiency virus 1, PBMC; for S.I. CQ: I.C.50/E.C.50; for CQ (fold): ratio to HIV-IIIB
Excerpt: (§1) For the phenotype of the nucleosidic, non-nucleosidic and proteases inhibitors was utilised a method which consider the use of human PBMC and the protocol standardised by the AIDS Clinical Trials Group, after verifying the genotype by sequence analysis.
(§2) In order to assay in vitro the susceptibility to chloroquine and hydroxychloroquine of the viral strains, it was used the protocol of the ACTG which is characterised by the measure, of the production of antigen p24 in strongly infected cells.
(§3) The susceptibility of the viral strains to chemotherapics was determined in cell cultures, prepared in 96 wells microplates, using, for the infection, 0.1 MOI.
(§4) The supernatant of the infected cultures (either in absence or in presence of different concentrations of chemotherapic) were tested for the production of p24 after 7 days, using an ELISA test which is commercially available.
(§5) The concentrations of chloroquine and hydroxychloroquine tested ranged from 0.5 to 15 uM. At the same time non-infected cells were incubated with concentrations of chloroquine and hydroxychloroquine ranging from 0 to 50 uM to evaluate the toxicity of the compound.
(§6) After 4 day from the infection, half the cellular medium was replaced with a medium containing the corresponding dilution of chloroquine and hydroxychloroquine. The percentage of inhibition of the HIV replication, induced by chloroquine and hydroxychloroquine, was determined, after 7 day from the infection, comparing the levels of p24 of this cultures and that of the control, infected and not treated with chloroquine and hydroxychloroquine.
(§7) Therefore, the E.C.50 of chloroquine and hydroxychloroquine expresses the concentration of chemotherapic that inhibits the 50% of production of p24 and the values were calculated using linear and non linear regression analysis (the significativity for the non linear regression was R^2>0.95).
(§8) In the same experimental conditions and in the same day, but with similar concentrations of chloroquine and hydroxychloroquine, it was evaluated the vitality of the infect cell cultures, and this was expressed as I.C.50.
(§9) I.C.50 (Inhibitory Concentration) indicates the concentration of the chemotherapic agent inhibiting the vitality of the cell cultures at a rate of 50%, when there is not infection.

[2] = test system: HIV-1 clinical isolated, characterised by mutations on the protease gene inducing geno-phenotypic resistance to NFV; assay: p24 production susceptibility test, Table 10, H-9 cells; assay type: cell-based; details: for S.I. CQ / Fen. CQ (fold): H-9; for S.I. CQ: I.C.50/E.C.50; for Fen. CQ (fold): ratio to HIV-IIIB; for EC50: Human immunodeficiency virus 1, H9, H-9, read-out: E.C.50 CQ
Excerpt: as §1, §2, §3, §4, §5, §6, §7, §8, §9

[3] = test system: HIV-1 clinical isolated, characterised by mutations in the RT gene inducing geno-phenotypic resistance to ABC; assay: p24 production susceptibility test (ACTG protocol), Table 5; assay type: cell-based; details: for EC50: Human immunodeficiency virus 1, PBMC, read-out: E.C.50 CQ; for S.I. CQ / Fen. CQ (fold): PBMC; for S.I. CQ: I.C.50/E.C.50; for Fen. CQ (fold): ratio to HIV-IIIB
Excerpt: as §1, §2, §3, §4, §5, §6, §7, §8, §9

[4] = test system: HIV-1 clinical isolated, characterised by mutations in the protease gene inducing geno-phenotypic resistance to SQV; assay: p24 production susceptibility test (ACTG protocol), Table 8; assay type: cell-based; details: for EC50: Human immunodeficiency virus 1, PBMC, read-out: E.C.50 CQ; for S.I. CQ / Fen. CQ (fold): PBMC; for S.I. CQ: I.C.50/E.C.50; for Fen. CQ (fold): ratio to HIV-IIIB
Excerpt: as §1, §2, §3, §4, §5, §6, §7, §8, §9

[5] = test system: HIV-1 clinical isolated, characterised by mutations in the protease gene inducing geno-phenotypic resistance to IDV; assay: p24 production susceptibility test (ACTG protocol), Table 9; assay type: cell-based; details: for EC50: Human immunodeficiency virus 1, PBMC; for S.I. CQ: I.C.50/E.C.50; for Fen. CQ (fold): ratio to HIV-IIIB
Excerpt: as §1, §2, §3, §4, §5, §6, §7, §8, §9

[6] = test system: HIV clinical isolated, characterised by mutations in the RT gene inducing geno-phenotypic resistance to ddI; assay: p24 production susceptibility test (ACTG protocol), Table 2; assay type: cell-based, HIV-1; details: for EC50: Human immunodeficiency virus 1, PBMC, read-out: E.C.50 CQ; for S.I. CQ / Fen. CQ (fold): PBMC; for S.I. CQ: I.C.50/E.C.50; for Fen. CQ (fold): ratio to HIV-IIIB
Excerpt: as §1, §2, §3, §4, §5, §6, §7, §8, §9

[7] = PBMC, Gen. D67N K70R T215F K219Q
[8] = PBMC, Gen. D 67 Ns K 70N T215F K219Q
[9] = PBMC, Gen. M41I M184V L210W R221K T215Y
[10] = PBMC, Gen. M41L D67N K70RM 184V T215F
[11] = PBMC, Gen. M41LD 76N K70R T215Y
[12] = Gen. K65R S68G F77L Y115F Q151M M184V
[13] = Gen. M41L D67N M184V L210W T215Y
[14] = PBMC, Gen. K20R E35D M36I I54V V82T
[15] = Gen M4IL M184V L210W R211KL 214F T215Y

## CCN(CC)CCCC(C)Nc1ccnc2cc(Cl)ccc12 (stereo not drawn) [CQ, chloroquine]
[1]; PBMC, Gen. D67N K70R T215F K219Q, read-out: E.C.50 CQ
  EC50: 2 µM
[1]; PBMC, Gen. D 67 Ns K 70N T215F K219Q, read-out: E.C.50 CQ
  EC50: 3 µM
[1]; PBMC, Gen. K70R T215F K219Q, read-out: E.C.50 CQ
  EC50: 1.8 µM
[1]; PBMC, Gen. M41I M184V L210W R221K T215Y, read-out: E.C.50 CQ
  EC50: 1.5 µM
[1]; PBMC, Gen. M41I T215Y, read-out: E.C.50 CQ
  EC50: 2 µM
[1]; PBMC, Gen. M41L D67N K70RM 184V T215F, read-out: E.C.50 CQ
  EC50: 2.5 µM
[1]; read-out: E.C.50 CQ (uM), PBMC, Gen. M41LD 76N K70R T215Y
  EC50: 3 µM
[1]; [7]
  S.I. CQ: 4
  CQ (fold): 1.1X fold
[1]; [8]
  S.I. CQ: 3
  CQ (fold): 2X fold
[1]; PBMC, Gen. K70R T215F K219Q
  S.I. CQ: 5.5
  CQ (fold): 1.1X fold
[1]; [9]
  S.I. CQ: 6
  CQ (fold): 0.8X fold
[1]; PBMC, Gen. M41I T215Y
  S.I. CQ: 4
  CQ (fold): 1.1X fold
[1]; [10]
  S.I. CQ: 3.6
  CQ (fold): 1.3X fold
[1]; [11]
  S.I. CQ: 3.2
  CQ (fold): 1.6X fold
[2]; Gen. D30N
  S.I. CQ: 4.2
  Fen. CQ (fold): 1.3X fold
  EC50: 2500 nM
[2]; Gen. V82A
  S.I. CQ: 5
  Fen. CQ (fold): 1.5X fold
  EC50: 2700 nM
[3]; Gen. K65R L74V M184V
  EC50: 1800 nM
  S.I. CQ: 5.5
  Fen. CQ (fold): 1.2X fold
[3]; [12]
  EC50: 2500 nM
  S.I. CQ: 3.6
  Fen. CQ (fold): 1.6X fold
[3]; Gen. L74V M184F
  EC50: 1800 nM
  S.I. CQ: 5.5
  Fen. CQ (fold): 1.2X fold
[3]; Gen. L74V Y115F M184V
  EC50: 2200 nM
  S.I. CQ: 4
  Fen. CQ (fold): 1.2X fold
[3]; [13]
  EC50: 2200 nM
  S.I. CQ: 4
  Fen. CQ (fold): 1.4X fold
[4]; Gen. G48V I84V A74V L90M
  EC50: 1800 nM
  S.I. CQ: 5.5
  Fen. CQ (fold): 1X fold
[4]; Gen. G48V V82A
  EC50: 3500 nM
  S.I. CQ: 3.4
  Fen. CQ (fold): 1.9X fold
[4]; Gen. I84V L90M
  EC50: 2500 nM
  S.I. CQ: 3.6
  Fen. CQ (fold): 1.3X fold
[4]; Gen. M46I G48V L63P L90M
  EC50: 2000 nM
  S.I. CQ: 6.7
  Fen. CQ (fold): 1.1X fold
[4]; Gen. V82A L90M
  EC50: 1500 nM
  S.I. CQ: 6
  Fen. CQ (fold): 0.8X fold
[5]; PBMC, Gen. G48V V82A, read-out: E.C.50 CQ
  EC50: 2.5 µM
[5]; PBMC, Gen. I84V L90M, read-out: E.C.50 CQ
  EC50: 2.2 µM
[5]; PBMC, Gen. K20R E35D M36I I54V V82T, read-out: E.C.50 CQ
  EC50: 1.8 µM
[5]; PBMC, Gen. V82F L90M, read-out: E.C.50 CQ
  EC50: 2.8 µM
[5]; read-out: E.C.50 CQ (uM), PBMC, Gen. L10R M46I L63P V82T
  EC50: 1.5 µM
[5]; PBMC, Gen. G48V V82A
  S.I. CQ: 3.6
  Fen. CQ (fold): 1.3X fold
[5]; PBMC, Gen. I84V L90M
  S.I. CQ: 4
  Fen. CQ (fold): 1.2X fold
[5]; [14]
  S.I. CQ: 5.5
  Fen. CQ (fold): 1X fold
[5]; PBMC, Gen. L10R M46I L63P V82T
  S.I. CQ: 5.5
  Fen. CQ (fold): 1X fold
[5]; PBMC, Gen. V82F L90M
  S.I. CQ: 3.4
  Fen. CQ (fold): 1.5X fold
[6]; Gen D67N K70R M184V T215Y
  EC50: 2500 nM
  S.I. CQ: 4.5
  Fen. CQ (fold): 1.5X fold
[6]; Gen D67N K70R T215F K70R
  EC50: 3000 nM
  S.I. CQ: 3
  Fen. CQ (fold): 1.3X fold
[6]; Gen K70R T215F K219Q
  EC50: 1800 nM
  S.I. CQ: 5.5
  Fen. CQ (fold): 0.7X fold
[6]; [15]
  EC50: 2000 nM
  S.I. CQ: 4.5
  Fen. CQ (fold): 1.1X fold
[6]; Gen M41I T215F
  EC50: 2000 nM
  S.I. CQ: 4
  Fen. CQ (fold): 1.1X fold
[6]; Gen M41L D67N K70R M184V T215Y
  EC50: 2500 nM
  S.I. CQ: 3.6
  Fen. CQ (fold): 1.3X fold
[6]; Gen M41L D67N K70R T215Y
  EC50: 3000 nM
  S.I. CQ: 3.2
  Fen. CQ (fold): 1.2X fold
